Consider 3 molecules from ChEMBL document CHEMBL5252652, “Benzo[b]naphtho[2,1-d]furans and 2-Phenylnaphthalenes from Streblus usambarensis” (J Nat Prod, 2023).

Molecules are shown by their SMILES. In brackets after ≈: the same amount, converted by molar mass.

Series [1] deals with Bacillus subtilis. In words: Antibacterial activity against Bacillus subtilis assessed as inhibition of bacterial growth incubated for 4 to 20 hrs by resazurin based microplate reader analysis. Format: functional. Conditions: time 4-20 hrs. In general terms: The colour change of resazurin is a common sign of viable cells or microbes.
Series [2] deals with MCF7. The series is described as follows: Cytotoxicity against human MCF7 cells assessed as reduction in cell viability incubated for 24 hrs by PrestoBlue reagent based fluorescence assay. Format: toxicity. Conditions: mcf7, 24 h.

Regarding `CC1(C)C=Cc2c(-c3ccc4ccc(O)cc4c3)ccc(O)c2O1`, the MIC (usually the smallest concentration in the dilution series that meets the test's criterion for growth inhibition) in series [1] stood at 9 µM (≈ 2.87 µg/mL). In series [2], the Activity result is given as “Non-Toxic”.

Regarding `COc1c(O)cc2c(oc3c4cc(O)ccc4ccc23)c1CC=C(C)C`, in series [2], the Activity entry is recorded as “Non-Toxic”.

Turning to `COc1ccc2ccc3c4cc(O)c(OC)c(CC=C(C)C)c4oc3c2c1`, the Activity entry in series [2] is “Non-Toxic”.
